Results published in PubChem BioAssay AID179 (DTP/NCI, 2004).
Active and inactive are the calls of the source.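 The calls were made as follows: active = compounds giving half or more protection of infected cells from virus-caused growth loss, again on retest; inactive = the rest.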

System: CEM cells HIV-1 protection, formazan growth assay
Assay: NCI AIDS Antiviral Assay
Details: for IC50: measured here: growth of uninfected CEM cells
How it was run: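 Protection of CEM cells against HIV-1 was scored from cell growth (soluble formazan) across five concentrations, with parallel uninfected cells. Lack of protection may reflect toxicity.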

| Structure (SMILES) | EC50 [µM] | IC50 [µM] | outcome |
| --- | --- | --- | --- |
| COc1ccc(/C=C(\C#N)c2ccccc2[N+](=O)[O-])cc1 | > 200 | 12.6 | – |
| COC(=O)c1cc(C)ccc1C1CN=NC12Cc1c(C)cc(C)cc1C2=O (configuration not stated) | > 200 | 29.5 | – |
| CCOC(=O)c1c2c3c(cccc3[nH]c1=O)Sc1ncccc1-2 | > 200 | 15.8 | – |
| Nc1nc2c(ncn2C2C=CC(COS(N)(=O)=O)C2)c(=O)[nH]1 (configuration not stated) | > 200 | > 200 | – |
| Nc1ccc(S(=O)(=O)Nc2ccccc2)cc1 | > 200 | > 200 | – |
| O=C(CC(=O)C1=CNc2ccccc2S1)C(=O)Nc1ccc(Cl)cc1 | > 126 | > 126 | – |
| Cc1nn(C(=O)Cc2ccccc2)c2c1C(c1ccc(N(C)C)cc1)SC(N)=N2 (configuration not stated) | 55 | > 200 | – |
| C[N+](C)(C)CC(=O)N/N=C(/CC(=O)CC(C1=C(O)c2ccccc2OC1)c1ccccc1)C(=O)Nc1cccc(Cl)c1 (configuration not stated) | > 151 | > 151 | – |
| COc1ccc(/C=C/c2ccnc3ccccc23)cc1OC | 0.0631 | 50.1 | – |
| N[C@@H]1c2c(csc2Br)C(=O)[C@@H]1O | > 200 | 11 | – |
| O=C(C[n+]1ccccc1)N/N=C(\Cc1nc2ccc([N+](=O)[O-])cc2[nH]c1=O)C(=O)Nc1cc(Cl)c(Cl)cc1Cl | > 79.4 | 66.1 | – |
| C=CCn1c(N)c(C#N)c(C#N)c1-c1ccccc1 | > 200 | > 200 | – |
| Cc1cc(C)cc(NC(N)=S)c1 | > 1000 | > 1000 | – |
| CO/C(=N\N=C\c1ccc(Cl)cc1)c1ccncc1 | > 200 | > 200 | – |
| CCOC(=O)c1cc(/C=C/C(C)=C/C(=O)OC)oc1-c1ccccc1 | – | – | inactive |
| COc1cccc2c(NNc3ccc(Cl)cc3)c3ccc([N+](=O)[O-])cc3nc12 | > 200 | 12.3 | – |
| O=[N+]([O-])c1ccccc1S(=O)(=O)Oc1ccccc1 | > 77.6 | 47.9 | – |
| COC(=O)C(C)(C)C(OP(=S)(OC)OC)=C(C)C | > 200 | > 200 | – |
| O=C1N(Cl)C2(c3ccccc3)N(Cl)C(=O)N(Cl)C2(c2ccccc2)N1Cl (configuration not stated) | > 200 | > 200 | – |
| Cc1sc2ccc3ccccc3c2[n+]1C | > 200 | 45.7 | – |
| Nc1nc(-c2ccccc2)nc(N)c1N=O | > 200 | 2.57 | – |
| Cc1cc2c(c3[nH]c4ccccc4c13)C(=O)c1ccccc1C2=O | > 3.39 | > 3.39 | – |
| CC(=O)OC1c2ccccc2C2c3ccccc3C1C2(C)C(Cl)(Cl)Cl (configuration not stated) | > 13.2 | > 13.2 | – |

| Structure (SMILES) | EC50 [µM] | IC50 [µM] | outcome |
| --- | --- | --- | --- |
| CC1(C)CC2(C)CC1CC2(O)c1ccccc1 (configuration not stated) | > 219 | 61.7 | – |
| [N-]=[N+]=NC1CC(n2cc(Cc3cccc(OCc4ccccc4)c3)c(=O)[nH]c2=O)OC1CO (configuration not stated) | – | – | inactive |
| CCOC(=O)C(C)P(=O)(OC)OC (configuration not stated) | > 200 | > 200 | – |
| O=C1C(c2ccc([N+](=O)[O-])cc2)=[N+]([O-])c2ccccc21 | – | – | inactive |
| COc1ccc2c(c1)OC[C@H]1c3cc(O)c(O)cc3O[C@@H]21 | – | – | inactive |
| O=S1(=O)OCCOS(=O)(=O)C1Cl | > 1050 | 178 | – |
| Cn1c(=O)c2c(nc(CCCCCc3nc4c(c(=O)n(C)c(=O)n4C)n3C)n2C)n(C)c1=O | > 200 | > 200 | – |
| S=C1Cc2c(-c3ccc(Br)cc3)cc(-c3ccccc3)nc2-c2ccccc2N1 | > 151 | 6.17 | – |
| CC12CCC(C1)C(O)(c1ccccc1)C2(O)c1ccccc1 (configuration not stated) | > 60.3 | 44.7 | – |
| CC(C)(c1cc(Cl)c(O)c(CN2CCOCC2)c1)c1cc(Cl)c(O)c(CN2CCOCC2)c1 | > 200 | 107 | – |
| O=S(=O)(O)CCCO | > 200 | > 200 | – |
| CC1OC(n2cc(C(F)(F)F)c(=O)[nH]c2=O)C=CC1O (configuration not stated) | > 851 | 148 | – |
| N#CC1CCCCCCCCCCC(=O)N(CCCl)C1=O (configuration not stated) | > 60.3 | > 60.3 | – |
| NC(=O)CC1C(CO)OC(n2ccc(=O)[nH]c2=O)C1O (configuration not stated) | > 200 | > 200 | – |
| CC(=O)N1CC(C)(C)c2c(C)c(O)c(C)c(C)c21 | > 200 | 178 | – |
| Cc1c(Cc2ccccc2)n(COCCCN2C(=O)c3ccccc3C2=O)c(=O)[nH]c1=O | > 200 | 26.3 | – |
| COC(=O)C12C3C4C5(C(=O)OC)C(C1C35C(=O)N(C(C)C)C(C)C)C42C(=O)N(C(C)C)C(C)C (configuration not stated) | > 55 | > 55 | – |
| CCOC(=O)N/N=C(\Cc1ccc([N+](=O)[O-])cc1)OCC | > 200 | > 200 | – |
| NC1=NN(c2ccccc2)C(=O)C1/C(=N\NC(=O)c1cc2ccccc2cc1O)C(=O)Nc1nc([N+](=O)[O-])cs1 (configuration not stated) | > 12.9 | > 12.9 | – |
| Cc1nc2c(s/c(=N\N)n2-c2ccccc2)c(=O)[nH]1 | > 36.3 | > 36.3 | – |
| O=C(CNc1c(Cl)cccc1Cl)NC1C=Cc2ccc(S(=O)(=O)Nc3c(Cl)cccc3Cl)cc2C1=O (configuration not stated) | > 200 | 123 | – |
| CCN(CC)C(=O)c1cccc2c1OCO2 | > 1120 | > 1120 | – |
| O=C(CC(C(=O)c1cccs1)c1ccc2c(c1)OCO2)c1ccccc1 (configuration not stated) | > 200 | > 200 | – |

| Structure (SMILES) | EC50 [µM] | IC50 [µM] | outcome |
| --- | --- | --- | --- |
| Cc1ccc(NC=O)c(-c2c(N)[nH]c(=S)[nH]c2=O)c1 | > 200 | 148 | – |
| Cc1nc(-c2cc3cc([N+](=O)[O-])ccc3oc2=O)cs1 | > 200 | 74.1 | – |
| Nc1ccc(SCc2ccc(C(=O)O)cc2[N+](=O)[O-])cc1 | > 813 | 339 | – |
| O=C1NCC2=C1CCC1c3ccccc3CCN21 (configuration not stated) | > 200 | > 200 | – |
| O=C(CCCn1ccnc1[N+](=O)[O-])NCCn1cncc1[N+](=O)[O-] | > 200 | > 200 | – |
| CC(C)OP(=O)(OC(C)C)C(C)(C)O | > 200 | > 200 | – |
| CCCCC(C(=O)O)C1=CCCCC1 (configuration not stated) | – | – | inactive |
| COc1cc(C2c3cc4c(cc3C(=O)C3CCC(=O)N32)OCO4)cc(OC)c1O (configuration not stated) | > 50.1 | 27.5 | – |
| CCOc1ccc(N=Nc2c(-c3ccccc3)nn(C(=O)CC(=O)Nc3ccccc3Cl)c2-c2ccccc2)cc1 | > 33.1 | > 33.1 | – |
| Nc1c[nH][nH]c(=S)c1=S | > 200 | 3.63 | – |
| O=[N+]([O-])c1ccc(C2=CSC3=NCCN23)cc1 | – | – | inactive |
| O=C1NC(=O)C(CCCCO)N1 (configuration not stated) | – | – | inactive |
| CCCCc1ccc(Nc2nc(Cl)c3c(ncn3C3CC(Oc4ccc(C)cc4)C(COc4ccc(C)cc4)O3)n2)cc1 (configuration not stated) | > 200 | > 200 | – |
| CN(C)c1ccc(/C=C/C(=O)/C=C/c2ccc(N(C)C)cc2)cc1 | > 4.27 | > 4.27 | – |
| COc1ccc2c(c1)[n+](=O)c(C(=O)C/C(=N\NC(=O)C[N+](C)(C)C)C(=O)Nc1cc(Cl)ccc1Cl)c(C)n2O | > 1.23 | > 1.23 | – |
| COc1ccc(/C(C)=N/NC(=O)c2ccncc2)cc1OC | > 437 | > 437 | – |
| CN1C(=O)CC(Sc2ccccc2)c2ccccc21 (configuration not stated) | > 200 | 36.3 | – |
| Cc1ccc(NC(=O)/C(Cc2nc3ccc([N+](=O)[O-])cc3[nH]c2=O)=N\NC(=O)C[n+]2ccccc2)c(C)c1 | > 234 | 170 | – |
| Clc1ccc2nc(CCSCCc3nc4ccc(Cl)cc4[nH]3)[nH]c2c1 | – | – | inactive |
| c1ccc([P+](Cc2cccc3c2Cc2ccccc2-3)(c2ccccc2)c2ccccc2)cc1 | > 200 | 0.891 | – |
| O=C(c1ccc2c(c1)OCO2)N1OC2C=CC1CC2 (configuration not stated) | > 955 | 513 | – |
| C(=C1/NC(c2ccccc2)=Nc2ccccc21)/c1ccccc1 | > 6.76 | > 6.76 | – |
| OCC1OC(n2cnc3c(=S)nc[nH]c32)C(O)C1O (configuration not stated) | > 871 | 617 | – |

| Structure (SMILES) | EC50 [µM] | IC50 [µM] | outcome |
| --- | --- | --- | --- |
| COc1ccc(/C=N/NS(=O)(=O)c2ccc(/C=C3\NC(=O)N(C)C3=O)cc2)cc1 | > 200 | > 200 | – |
| O=C(O)CCC1(CCC(=O)O)CCCCCCCCC(CCC(=O)O)(CCC(=O)O)C(=O)C1=O | > 200 | > 200 | – |
| COC(=O)C(=O)C(C(=O)C(=O)Nc1ccc(Cl)cc1Cl)c1nc2ccc(Cl)cc2[nH]c1=O (configuration not stated) | > 38 | > 38 | – |
| CCOC(=O)c1[nH]c2nc(SC)nc(Nc3ccccc3Cl)c2c1N | > 200 | 126 | – |
| COc1cc2c(cc1OC)C(CC1=C(c3ccccc3)CN3CCc4cc(OC)c(OC)cc4C3C1)NCC2 (configuration not stated) | – | – | inactive |
| CCc1c(C)[nH]c2c1/C(=N/N=C1\CCCc3[nH]c(C)c(CC)c31)CCC2 | – | – | inactive |
| COc1ccc(/C=C2\Sc3scc(-c4ccc([N+](=O)[O-])cc4)[n+]3C2=O)cc1OC | > 200 | 15.8 | – |
| O=C1C=CC(=O)C(CNc2ccc(C(=O)OC34CC5CC(CC(C5)C3)C4)cc2)=C1Br | > 200 | 1.51 | – |
| Cc1nc2nnc(C)n2c2c1C(=O)Nc1ccccc1N2 | > 200 | > 200 | – |
| COc1cc2c(cc1O)C1CC(CC3CCCCN31)OC(=O)/C=C\c1ccc(O)c-2c1 (configuration not stated) | > 200 | 45.7 | – |
| CSc1ncnc2c1ncn2CCC#N | > 200 | > 200 | – |
| [N-]=[N+]=NC1(c2ccccc2)C(=O)c2cccc3c4ccccc4n(c23)C1=O (configuration not stated) | > 200 | > 200 | – |
| Cc1cc(S(=O)(=O)NC2=NCC(C)NN2)c(S)cc1Cl (configuration not stated) | > 200 | 39.8 | – |
| Cn1c(-c2cccc([N+](=O)[O-])c2)[n+](C)c2ccccc21 | > 200 | 18.6 | – |
| O/N=C1\CC2(N3CCOCC3)CCC1(Cc1ccccc1)CC2 | > 100 | > 100 | – |
| COc1ccc(/C=N/NS(=O)(=O)c2ccc(NC(C)=O)cc2)cc1 | > 525 | > 525 | – |
| O=C(CCNC(=O)OCc1ccccc1)OCCCNC(=O)OCc1ccccc1 | > 200 | > 200 | – |
| CCOC(=O)/C=C1\CCCn2c1ncc(C(=O)OCC)c2=O | > 200 | 3.63 | – |
| CC1=C(C(=O)NCc2ccccc2)C(/C=C/c2ccccc2)C(C(=O)NCc2ccccc2)=C(C)N1 | – | – | inactive |
| CC(=O)Nc1c(C#N)c2n(c1C(=O)Nc1ccccc1)CCC2 | > 200 | > 200 | – |
